For the assay, the target named is T1, human Prostaglandin D Synthase (GST2) (Homo sapiens, UniProt O60760).
T1 construct: the open reading frame of human Prostaglandin D Synthase was amplified from cDNA; made in house; host or cells: E. coli TOP10F'
Briefly: Homogeneous biochemical assay of human Prostaglandin D Synthase (GST2) based on its glutathion-S-transferase activity (GSH conjugation to monochlorobimane, fluorescence). As to conditions: given beside the compound name in Examples 1 to 167; read-out: Potency Range (GST2 IC50). The text has this:
Homogeneous, Biochemical Assay Monitoring the Activity of Human Prostaglandin D Synthase Based on the Glutathion-S-Transferase Activity of the Enzyme
Prostaglandin D2 synthesis by Prostaglandin D synthase (GST2) requires transfer of Glutathion (GSH) to the substrate, Prostaglandin H2. […] Since the Prostaglandin D2 synthesis is absolutely dependent on the GST activity of the enzyme, assays monitoring the GST activity should allow to identify specific inhibitors of Prostaglandin D2 synthetic activity. The assay principle used is based on enzymatic conjugation of GSH to Monochlorobimane (MCB), that becomes fluorescent upon this chemical modification. Therefore, the enzymatic reaction can be monitored by total fluorescence measurement.
In brief, the open reading frame of human Prostaglandin D Synthase was amplified from cDNA using the primer pair:
This construct allows prokaryotic expression of Prostaglandin D Synthase as fusion protein with a N-terminal hexa-histidine tag, referred to as NHis-Prostaglandin D Synthase.
Expression of NHis-Prostaglandin D Synthase was in E. coli TOP10F′ (Invitrogen, Germany, cat. no. C3030-03). […] When the culture had reached a density corresponding to an A600 of 0.6, an equal volume of room temperature LB/ampicillin was added. […] Cells harvested by centrifugation were resuspended in 50 mM tris(hydroxymethyl)aminomethane hydrochloride pH 7.5 (Tris/HCl, Sigma, cat. no. T5941).
Removal of unbound material was with 100 ml lysis buffer. Elution was with 50 ml of 50 mM Tris/HCl pH 7.5, 300 mM imidazol (Sigma, Germany, cat. no. I2399)/HCl pH 7.5). […] Aliquots were shock frozen in liquid nitrogen and stored at −80° C.
All assay components were diluted in reaction buffer, 50 mM MES/KOH (pH 6.1), 0.7 mM GSH (Sigma, G4251), 2 mM MgCl2 (Sigma, M2670), 0.05% Pluronic F127 (Sigma, P2443), and stored on ice prior to use. Compounds were diluted in 90% DMSO yielding final assay concentrations from the picomolar to three digit micromolar range.
Total fluorescent measurement was carried out with excitation and emission wavelength of 390 and 460 nm, respectively (BMG Fluostar Optima).

IC50 data for 34 compounds are collected here from patent publication US20100234377A1 (priority 2007, published 2010).

T1 sequence (O60760 whole entry): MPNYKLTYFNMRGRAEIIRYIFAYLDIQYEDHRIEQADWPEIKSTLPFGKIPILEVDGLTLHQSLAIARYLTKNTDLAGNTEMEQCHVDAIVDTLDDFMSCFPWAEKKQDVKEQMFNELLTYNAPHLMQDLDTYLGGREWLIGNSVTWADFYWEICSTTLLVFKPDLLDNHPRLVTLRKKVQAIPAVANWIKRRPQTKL

Consider “4-(3-Fluoro-benzoyl)-piperazine-1-carboxylic acid [4-(2-methyl-thiazol-3-yl)-phenyl]-amide [Compound 29]”, for which the IC50 (commonly the point on the concentration scale where inhibition reaches its midpoint) is 11 to 100 nM.

`CC(C)(C)c1ccc(NC(=S)N2CCN(C(=O)c3ccccc3)CC2)cc1` [Compound 1, 4-Benzoyl-piperazine-1-carbothioic acid (4-tert-butyl-phenyl)-amide]: the IC50 was in the range of 1 to 10 nM. To `CN(C)c1ccc(NC(=S)N2CCN(C(=O)c3ccccc3)CC2)cc1` [Compound 2, 4-Benzoyl-piperazine-1-carbothioic acid (4-dimethylamino-phenyl)-amide] belongs 1 to 10 nM; to `O=C(c1ccccc1)N1CCN(C(=S)Nc2ccc([N+](=O)[O-])cc2)CC1` [Compound 3, 4-Benzoyl-piperazine-1-carbothioic acid (4-nitro-phenyl)-amide], 11 to 100 nM.

`O=C(c1ccccc1)N1CCN(C(=S)Nc2ccc(F)cc2)CC1` [Compound 4, 4-Benzoyl-piperazine-1-carbothioic acid (4-fluoro-phenyl)-amide]: the IC50 was 101 to 1000 nM. Consider `O=C(c1ccccc1)N1CCN(C(=S)Nc2cccc3ccccc23)CC1` [Compound 5, 4-Benzoyl-piperazine-1-carbothioic acid naphthalen-1-ylamide], for which the IC50 was in the range of 11 to 100 nM. Take `COC(=O)c1ccc(NC(=S)N2CCN(C(=O)c3ccccc3)CC2)cc1` [Compound 6, 4-[(4-Benzoyl-piperazine-1-carbothioyl)-amino]-benzoic acid methyl ester]: the IC50 fell in the range of 11 to 100 nM. To `Cc1ccc(NC(=S)N2CCN(C(=O)c3ccccc3)CC2)cc1` [Compound 7, 4-Benzoyl-piperazine-1-carbothioic acid p-tolylamide] belongs 101 to 1000 nM.

On to `CC(C)(C)c1ccc(NC(=S)N2CCN(C(=O)c3ccc(F)cc3)CC2)cc1` [Compound 8, 4-(4-Fluoro-benzoyl)-piperazine-1-carbothioic acid (4-tert-butyl-phenyl)-amide], for which the IC50 fell in the range of 11 to 100 nM. The result for `O=C(c1ccc(F)cc1)N1CCN(C(=S)Nc2ccc(Oc3ccccc3)cc2)CC1` [Compound 9, 4-(4-Fluoro-benzoyl)-piperazine-1-carbothioic acid (4-phenoxy-phenyl)-amide] reads 101 to 1000 nM; that for `CN(C)c1ccc(NC(=S)N2CCN(C(=O)c3ccc(F)cc3)CC2)cc1` [Compound 10, 4-(4-Fluoro-benzoyl)-piperazine-1-carbothioic acid (4-dimethylamino-phenyl)-amide], 101 to 1000 nM. To `COC(=O)c1ccc(NC(=S)N2CCN(C(=O)c3ccc(F)cc3)CC2)cc1` [Compound 11, 4-{[4-(4-Fluoro-benzoyl)-piperazine-1-carbothioyl]-amino}-benzoic acid methyl ester] belongs 101 to 1000 nM. With `COc1ccc(NC(=S)N2CCN(C(=O)c3ccc(F)cc3)CC2)cc1` [Compound 12, 4-(4-Fluoro-benzoyl)-piperazine-1-carbothioic acid (4-methoxy-phenyl)-amide], the IC50 is 101 to 1000 nM. Consider `Cc1ccc(NC(=S)N2CCN(C(=O)c3ccc(F)cc3)CC2)cc1` [Compound 13, 4-(4-Fluoro-benzoyl)-piperazine-1-carbothioic acid p-tolylamide], for which the IC50 was in the range of 101 to 1000 nM.

`CN(C)c1ccc(NC(=S)N2CCN(C(=O)c3cccnc3)CC2)cc1` [Compound 14, 4-(Pyridine-3-carbonyl)-piperazine-1-carbothioic acid (4-dimethylamino-phenyl)-amide]: the IC50 is 101 to 1000 nM.

For the compound `O=C(c1cccc(F)n1)N1CCN(C(=S)Nc2ccc(Oc3ccccc3)cc2)CC1` [Compound 17, 4-(6-Fluoro-pyridine-2-carbonyl)-piperazine-1-carbothioic acid (4-phenoxy-phenyl)-amide], the IC50 fell in the range of 101 to 1000 nM. As for `O=C(c1cccc(F)n1)N1CCN(C(=S)Nc2ccc(OC(F)F)cc2)CC1` [Compound 18, 4-(6-Fluoro-pyridine-2-carbonyl)-piperazine-1-carbothioic acid (4-difluoromethoxy-phenyl)-amide], the IC50 lay in the range of 101 to 1000 nM. For the compound `O=C(c1cccc(F)n1)N1CCN(C(=S)Nc2ccc(OC(F)(F)F)cc2)CC1` [Compound 19, 4-(6-Fluoro-pyridine-2-carbonyl)-piperazine-1-carbothioic acid (4-trifluoromethoxy-phenyl)-amide], the IC50 was in the range of 101 to 1000 nM.

Turning to `O=C(c1cccc(F)n1)N1CCN(C(=S)Nc2ccc(C(F)(F)F)cc2)CC1` [Compound 20, 4-(6-Fluoro-pyridine-2-carbonyl)-piperazine-1-carbothioic acid (4-trifluoromethyl-phenyl)-amide], the IC50 was in the range of 101 to 1000 nM.

Regarding `O=C(c1cccc(F)c1)N1CCN(C(=S)Nc2ccc(C(F)(F)F)cc2)CC1` [Compound 23, 4-(3-Fluoro-benzoyl)-piperazine-1-carbothioic acid (4-trifluoromethyl-phenyl)-amide], the IC50 lay in the range of 11 to 100 nM. In the case of `O=C(Nc1cc(Cl)nc(Cl)c1)N1CCN(C(=O)c2cccc(F)c2)CC1` [Compound 24, 4-(3-Fluoro-benzoyl)-piperazine-1-carboxylic acid (2,6-dichloro-pyridin-4-yl)-amide], the IC50 is 101 to 1000 nM.

With `O=C(Nc1cccc(Oc2ccccc2)c1)N1CCN(C(=O)c2cccc(F)c2)CC1` [Compound 25, 4-(3-Fluoro-benzoyl)-piperazine-1-carboxylic acid (3-phenoxy-phenyl)-amide], the IC50 fell in the range of 11 to 100 nM. To `O=C(Nc1ccc(Oc2ccccc2)cc1)N1CCN(C(=O)c2cccc(F)c2)CC1` [Compound 26, 4-(3-Fluoro-benzoyl)-piperazine-1-carboxylic acid (4-phenoxy-phenyl)-amide] belongs 11 to 100 nM; to `O=C(Nc1ccc2sccc2c1)N1CCN(C(=O)c2cccc(F)c2)CC1` [Compound 27, 4-(3-Fluoro-benzoyl)-piperazine-1-carboxylic acid benzo[b]thiophen-5-ylamide], 11 to 100 nM; to `O=C(Nc1ccc(-c2cccs2)cc1)N1CCN(C(=O)c2cccc(F)c2)CC1` [Compound 28, 4-(3-Fluoro-benzoyl)-piperazine-1-carboxylic acid (4-thiophen-2-yl-phenyl)-amide], 11 to 100 nM. To `O=C(Nc1cccc(N2CCOCC2)c1)N1CCN(C(=O)c2cccc(F)c2)CC1` [Compound 31, 4-(3-Fluoro-benzoyl)-piperazine-1-carboxylic acid (3-morpholin-4-yl-phenyl)-amide] belongs 101 to 1000 nM; to `O=C(Nc1cccc(Br)c1)N1CCN(C(=O)c2cccc(F)c2)CC1` [Compound 32, 4-(3-Fluoro-benzoyl)-piperazine-1-carboxylic acid (3-bromo-phenyl)-amide], 11 to 100 nM; to `CCOC(=O)c1ccc(NC(=O)N2CCN(C(=O)c3cccc(F)c3)CC2)cc1` [Compound 33, 4-{[4-(3-Fluoro-benzoyl)-piperazine-1-carbonyl]-amino}-benzoic acid ethyl ester], 101 to 1000 nM. In the case of `COC(=O)c1cccc(NC(=O)N2CCN(C(=O)c3cccc(F)c3)CC2)c1` [Compound 34, 3-{[4-(3-Fluoro-benzoyl)-piperazine-1-carbonyl]-amino}-benzoic acid methyl ester], the IC50 fell in the range of 11 to 100 nM. `N#Cc1cccc(NC(=O)N2CCN(C(=O)c3cccc(F)c3)CC2)c1` [Compound 35, 4-(3-Fluoro-benzoyl)-piperazine-1-carboxylic acid (3-cyano-phenyl)-amide]: the IC50 was 11 to 100 nM. To `O=C(Nc1cccc([N+](=O)[O-])c1)N1CCN(C(=O)c2cccc(F)c2)CC1` [Compound 36, 4-(3-Fluoro-benzoyl)-piperazine-1-carboxylic acid (3-nitro-phenyl)-amide] belongs 101 to 1000 nM; to `O=C(Nc1ccc([N+](=O)[O-])cc1)N1CCN(C(=O)c2cccc(F)c2)CC1` [Compound 37, 4-(3-Fluoro-benzoyl)-piperazine-1-carboxylic acid (4-nitro-phenyl)-amide], 101 to 1000 nM. The result for `O=C(Nc1ccc(N2CCOCC2)c(Cl)c1)N1CCN(C(=O)c2cccc(F)c2)CC1` [Compound 38, 4-(3-Fluoro-benzoyl)-piperazine-1-carboxylic acid (3-chloro-4-morpholin-4-yl-phenyl)-amide] reads 11 to 100 nM; that for `O=C(c1cccc(F)n1)N1CCN(C(=S)Nc2ccc(N3CCOCC3)c(F)c2)CC1` [Compound 40, 4-(6-Fluoro-pyridine-2-carbonyl)-piperazine-1-carbothioic acid (3-fluoro-4-morpholin-4-yl-phenyl)-amide], 101 to 1000 nM.
